Where two headings read alike, the source gives them in different places.
Key:
[1] = system: humanized PXR-CAR-CYP3A4/3A7 mice, liver; experiment: UHPSFC/MS liver lipidomics (HFD study); type: in vivo, mouse
Method: Solvents, additives, lipid class internal standards, liver sample preparation, and UHPSFC/MS measurement are described in detail in Supplementary, Chapter 19. Lipid separation using UHPSFC (Acquity UPC^2 instrument from Waters; Milford, MA, USA) was performed on column Viridis BEH (100 × 3 mm, 1.7 µm) with the following conditions: the column temperature 60 °C, the flow rate 1.9 mL/min, and the injection volume 1 µL. The following linear gradient was performed using scCO2 and methanol (30 mM ammonium acetate + 1% of water) used as a modifier: 0 min – 1% modifier, 1.5 min – 16% modifier, 4 min – 51% modifier, 7 min – 51% modifier, 7.51 min – 1% modifier, and the equilibration with the total run time of 8 min. The automatic back-pressure regulator (ABPR) was set to 1800 psi and the autosampler temperature to 4 °C. Methanol with 30 mM ammonium acetate and 1% of water was used as the make-up solvent with a flow rate of 0.25 mL/min. The SFC was connected with the hybrid quadrupole - time of flight (QTOF) mass spectrometer Synapt G2-Si (Waters; Milford, MA, USA) with following conditions: sensitivity mode applying positive ESI mode, the mass range of m/z 150–1200, the capillary voltage of 3 kV, the sampling cone of 20 V, the source offset of 90 V, the source temperature of 150 °C, the desolvation temperature of 500 °C, the cone gas flow of 50 L/h, the desolvation gas flow of 1000 L/h, and the nebulizer gas flow of 4 bar. Mass spectra were acquired in the continuum mode with a scan time of 0.5 s and the peptide leucine enkephalin as the lock mass.
All UHPSFC/MS-QTOF spectra were acquired using MassLynx and processed as follows: noise reduction using the Compression tool followed by the lock mass correction and the conversion from continuum to centroid mode using the MassLynx tool (Accurate mass measure). […] Data were further analyzed using lipidr package. PCA and log2 fold change values were calculated using log2 transformed and Pareto scaled data. […]

[2] = Stability in mouse plasma; type: in vitro ADME; conditions: read-out: Stability in mouse plasma, t1/2
Excerpt: Plasma protein binding, and stability in human and mouse plasma have been tested as previously described.

[3] = biological target: T1, human PXR (Homo sapiens, UniProt O75469); experiment: PXR luciferase reporter gene assay (CYP3A4-luc) in HepG2 cells; type: cell-based; design: host or cells: HepG2
T1 sequence (O75469 1-434): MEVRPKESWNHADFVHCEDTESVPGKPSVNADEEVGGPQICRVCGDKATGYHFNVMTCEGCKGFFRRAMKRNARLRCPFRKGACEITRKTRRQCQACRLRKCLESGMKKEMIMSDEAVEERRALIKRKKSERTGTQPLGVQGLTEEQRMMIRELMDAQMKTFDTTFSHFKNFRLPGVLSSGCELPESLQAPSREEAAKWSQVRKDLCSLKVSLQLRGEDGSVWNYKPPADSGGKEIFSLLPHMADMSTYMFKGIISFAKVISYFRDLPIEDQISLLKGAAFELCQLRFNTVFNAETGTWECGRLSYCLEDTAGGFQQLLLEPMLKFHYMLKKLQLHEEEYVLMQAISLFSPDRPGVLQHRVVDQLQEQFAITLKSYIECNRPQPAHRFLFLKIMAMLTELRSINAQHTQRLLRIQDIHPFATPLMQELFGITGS
Method: The half maximal effective concentration (EC50) to activate CAR or inhibit PXR (IC50) in the assays was calculated from at least eight points of the dose-response curves using the GraphPad Prism software.

## NC(=O)c1cc(Cn2cc(-c3c(-c4ccc(Cl)cc4)nc4cc(F)ccn34)nn2)ccc1Cl [MI-883, 2-chloro-5-((4-(2-(4-chlorophenyl)-7-fluoroimidazo[1,2-a]pyridin-3-yl)-1H-1,2,3-triazol-1-yl)methyl)benzamide]
[1]
  cholesteryl esters (CE) in livers, UHPSFC/MS lipidomics: not significantly altered
  total and some individual lysophosphatidylcholine (LPC) levels in liver: statistically significant decrease
[1]; male mice
  liver triglycerides with long and highly unsaturated fatty acids (TG 60:12, TG 60:13): significant increase
[2]
  half-life: > 2 h
[3]; HepG2 cells, read-out: IC50, basal PXR activation
  IC50: 2.03 ± 0.3 µM
[3]; HepG2 cells, read-out: IC50, rifampicin-induced PXR activation
  IC50: 3.6 ± 0.4 µM
[3]; reply to reviewers, read-out: IC50 for PXR antagonistic activity
  IC50: 2 µM

— PMC11802874, “The hypolipidemic effect of MI-883, the combined CAR agonist/ PXR antagonist, in diet-induced hypercholesterolemia model” (Nature Communications, 2025)
